Experimental data reported in patent US20220041606A1, “POSITIVE ALLOSTERIC MODULATORS OF THE MUSCARINIC ACETYLCHOLINE RECEPTOR M1” (Vanderbilt University, priority 2020, published 2022).
pEC50: −log10 of the molar value.

Columns and labels:
human mAChR M1 [1] = target: T1, human mAChR M1 (Homo sapiens, UniProt P11229); test: mAChR M1 cell-based functional assay (calcium mobilization), PAM activity: increase in the EC20 acetylcholine response; details: CHO-K1 cells expressing hM1; potentiation of EC20 acetylcholine response
T1 construct: host or cells: CHO-K1 cells (ATCC), stably transfected using Lipofectamine2000
T1 sequence (P11229 1-460): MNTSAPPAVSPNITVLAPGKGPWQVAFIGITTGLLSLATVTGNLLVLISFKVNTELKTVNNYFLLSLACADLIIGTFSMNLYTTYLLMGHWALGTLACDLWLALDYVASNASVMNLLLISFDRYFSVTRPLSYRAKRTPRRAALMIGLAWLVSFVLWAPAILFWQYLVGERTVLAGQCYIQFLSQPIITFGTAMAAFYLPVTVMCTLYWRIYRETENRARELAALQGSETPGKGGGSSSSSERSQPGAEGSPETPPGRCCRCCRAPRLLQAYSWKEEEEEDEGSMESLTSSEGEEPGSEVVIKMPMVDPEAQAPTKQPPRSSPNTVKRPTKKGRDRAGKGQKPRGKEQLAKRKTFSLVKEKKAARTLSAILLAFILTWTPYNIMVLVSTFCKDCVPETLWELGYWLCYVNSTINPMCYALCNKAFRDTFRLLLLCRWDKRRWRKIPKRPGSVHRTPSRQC
Text: (§1) Chinese hamster ovary (CHO-K1) cells stably expressing rat (r)M1 were purchased from the American Type Culture Collection and cultured according to their indicated protocol. CHO cells stably expressing human (h)M2, hM3, and hM5 were described previously (Levey, et al., 1991); hM1 and hM4 cDNAs were purchased from Missouri S&T cDNA Resource; rM4 cDNA was provided by T. L. Bonner (National Institutes of Health, Bethesda, MID). rM2 and rM3 were cloned from a rat brain cDNA library and sequence verified. hM1, rM2, rM3, hM4, and rM4 cDNAs were used to stably transfect CHO-K1 cells purchased from the American Type Culture Collection using Lipofectamine2000. To make stable rM2, hM2, rM3, hM4, and rM4 cell lines for use in calcium mobilization assays, these cells also were stably transfected with a chimeric G-protein (Gqi5) (provided by B. R. Conklin, University of California, San Francisco) using Lipofectamine 2000. rM1, hM1, rM3, hM3, rM5, and hM5 cells were grown in Ham's F-12 medium containing 10% heat-inactivated fetal bovine serum (FBS), 20 mM HEPES, and 50 μg/mL G418 sulfate. rM2-Gq15, hM2-Gqi5, and hM4-Gqi5 cells were grown in the same medium also containing 500 μg/mL Hygromycin B. Stable rM4-Gqi5 cells were grown in DMEM containing 10% heat-inactivated FBS, 20 mM HEPES, 400 μg/mL G418 sulfate, and 500 μg/mL Hygromycin B.
(§2) For high throughput measurement of agonist-evoked increases in intracellular calcium, CHO-K1 cells stably expressing muscarinic receptors were plated in growth medium lacking G418 and hygromycin at 15,000 cells/20 μL/well in Greiner 384-well black-walled, tissue culture (TC)-treated, clear-bottom plates (VWR). Cells were incubated overnight at 37° C. and 5% CO2. The next day, cells were washed using an ELX 405 (BioTek) with four washes (80 μL) of assay buffer then aspirated to 20 μL. Next, 20 μL of 16 μM Fluo-4/acetoxymethyl ester (Invitrogen, Carlsbad, Calif.) prepared as a 2.3 mM stock in DMSO and mixed in a 1:1 ratio with 10% (w/v) Pluronic F-127 and diluted in assay buffer was added to the wells and the cell plates were incubated for 50 min at 37° C. and 5% CO2. Dye was removed by washing with the ELX 405 (four 80 μL washes of assay buffer) then aspirated to 20 μL. Compound master plates were formatted in an 11 point CRC format (1:3 dilutions) in 100% DMSO with a starting concentration of 10 mM using the BRAVO liquid handler (Agilent). Test compound CRCs were then transferred to daughter plates (240 nL) using the Echo acoustic plate reformatter (Labcyte, Sunnyvale, Calif.) and then diluted into assay buffer (40 μL) to a 2× stock using a Thermo Fisher Combi (Thermo Fisher Scientific, Waltham, Mass.).
(§3) Calcium flux was measured using the Functional Drug Screening System (FDSS) 6000 (Hamamatsu Corporation, Tokyo, Japan) as an increase in the fluorescent static ratio. Compounds were applied to cells (20 μL, 2×) using the automated system of the FDSS 6000 at 4 s into the 300 s protocol and the data were collected at 1 Hz. At 144 s into the 300s protocol, 10 μL of an EC20 concentration of the muscarinic receptor agonist acetylcholine was added (5×), followed by the addition of 12 μL an EC80 concentration of acetylcholine at the 230 s time point (5×). Agonist activity was analyzed as a concentration-dependent increase in calcium mobilization upon compound addition. Emax values for agonist activity are expressed relative to the maximum for acetylcholine. Positive allosteric modulator activity was analyzed as a concentration-dependent increase in the EC20 acetylcholine response. Antagonist activity was analyzed as a concentration-dependent decrease in the EC80 acetylcholine response. Concentration-response curves were generated using a four-parameter logistical equation in XLfit curve fitting software (IDBS, Bridgewater, N.J.) for Excel (Microsoft, Redmond, Wash.) or Prism (GraphPad Software, Inc., San Diego, Calif.). […]

human mAChR M1 [2] = target: T1, human mAChR M1; test: mAChR M1 cell-based functional assay (calcium mobilization), agonist activity upon compound addition; details: CHO-K1 cells expressing hM1; for pEC50: compound alone, before acetylcholine addition; for Emax: relative to the maximum for acetylcholine
Text: as §1, §2, §3

Structure (SMILES) | pEC50 (human mAChR M1 [1]) | Emax (human mAChR M1 [1]) [%] | pEC50 (human mAChR M1 [2]) | Emax (human mAChR M1 [2]) [%]
Cn1nccc1-c1ccc(Cn2cc(C(=O)N[C@H]3CCCC[C@@H]3O)c3nccn3c2=O)c(F)c1 [Compound B32, 6-(2-fluoro-4-(1-methyl-1H-pyrazol-5-yl)benzyl)-N-((1S,2S)-2-hydroxycyclohexyl)-5-oxo-5,6-dihydroimidazo[1,2-c]pyrimidine-8-carboxamide] | 6.05 | 80 | < 5.00 | < 5
Cc1cnn(C)c1-c1ccc(Cn2cc(C(=O)N[C@H]3CCOC[C@@H]3O)c3nccn3c2=O)c(F)c1 [Compound B34, 6-(4-(1,4-dimethyl-1H-pyrazol-5-yl)-2-fluorobenzyl)-N-((3R,4S)-3-hydroxytetrahydro-2H-pyran-4-yl)-5-oxo-5,6-dihydroimidazo[1,2-c]pyrimidine-8-carboxamide] | ≤ 5.00 | 44 | < 5.00 | < 5
CC[C@H](C)[C@@H](CO)NC(=O)c1cn(Cc2ccc(-c3cnn(C)c3)cc2F)c(=O)c2nccnc12 [Compound A83, 6-(2-fluoro-4-(1-methyl-1H-pyrazol-4-yl)benzyl)-N-((2S,3S)-1-hydroxy-3-methylpentan-2-yl)-5-oxo-5,6-dihydropyrido[3,4-b]pyrazine-8-carboxamide] | ≤ 5.00 | 26 | < 5.00 | < 5
Cc1cn2c(=O)n(Cc3ccc(-c4ccn(C)n4)cc3F)cc(C(=O)N[C@H]3CCCC[C@@H]3O)c2n1 [Compound B26, 6-(2-fluoro-4-(1-methyl-1H-pyrazol-3-yl)benzyl)-N-((1S,2S)-2-hydroxycyclohexyl)-2-methyl-5-oxo-5,6-dihydroimidazo[1,2-c]pyrimidine-8-carboxamide] | 5.26 | 28 | < 5.00 | < 5
Cn1ccc(-c2ccc(Cn3cc(C(=O)N[C@@H]4CC[C@H]4O)c4nccn4c3=O)c(F)c2)n1 [Compound B4, 6-(2-fluoro-4-(1-methyl-1H-pyrazol-3-yl)benzyl)-N-((1R,2R)-2-hydroxycyclobutyl)-5-oxo-5,6-dihydroimidazo[1,2-c]pyrimidine-8-carboxamide] | 5.49 | 52 | < 5.00 | < 5
Cn1ccc(-c2ccc(Cn3cc(C(=O)NC4CC5(COC5)C4)c4occc4c3=O)c(F)c2)n1 [Compound D10, 5-(2-fluoro-4-(1-methyl-1H-pyrazol-3-yl)benzyl)-4-oxo-N-(2-oxaspiro[3.3]heptan-6-yl)-4,5-dihydrofuro[3,2-c]pyridine-7-carboxamide] | < 5.00 | 25 | < 5.00 | < 5
Cn1cc2c(-c3cc(F)c(Cn4cc(C(=O)N[C@H]5CCCC[C@@H]5O)c5occc5c4=O)c(F)c3)cccc2n1 [Compound D19, 5-(2,6-difluoro-4-(2-methyl-2H-indazol-4-yl)benzyl)-N-((1S,2S)-2-hydroxycyclohexyl)-4-oxo-4,5-dihydrofuro[3,2-c]pyridine-7-carboxamide] | 6.37 | 82 | < 5.00 | 9
O=C(N[C@H]1CCOC[C@@H]1O)c1cn(Cc2ccc(-n3cccn3)cc2)c(=O)c2cccnc12 [Compound A12, 6-(4-(1H-pyrazol-1-yl)benzyl)-N-((3R,4S)-3-hydroxytetrahydro-2H-pyran-4-yl)-5-oxo-5,6-dihydro-1,6-naphthyridine-8-carboxamide] | 5.86 | 70 | – | 28
O=C(N[C@H]1CCCCC[C@@H]1O)c1cn(Cc2ccc(-n3cccn3)cc2)c(=O)c2nccnc12 [Compound A62, 6-(4-(1H-pyrazol-1-yl)benzyl)-N-((1S,2S)-2-hydroxycycloheptyl)-5-oxo-5,6-dihydropyrido[3,4-b]pyrazine-8-carboxamide] | ≤ 5.00 | 53 | < 5.00 | < 5
Cn1ccc(-c2ccc(Cn3cc(C(=O)N[C@H]4CCC[C@@H]4O)c4occc4c3=O)c(F)c2)n1 [Compound D8, 5-(2-Fluoro-4-(1-methyl-1H-pyrazol-3-yl)benzyl)-N-((1S,2S)-2-hydroxycyclopentyl)-4-oxo-4,5-dihydrofuro[3,2-c]pyridine-7-carboxamide] | 5.29 | 32 | < 5.00 | < 5
Cn1cc(-c2ccc(Cn3cc(C(=O)N[C@@H]4CC[C@H]4O)c4ncccc4c3=O)c(F)c2)cn1 [Compound A9, 6-(2-fluoro-4-(1-methyl-1H-pyrazol-4-yl)benzyl)-N-((1R,2R)-2-hydroxycyclobutyl)-5-oxo-5,6-dihydro-1,6-naphthyridine-8-carboxamide] | 5.23 | 65 | < 5.00 | < 5
Cn1cc2c(-c3cc(F)c(Cn4cc(C(=O)NC5CC6(COC6)C5)c5nccnc5c4=O)c(F)c3)cccc2n1 [Compound A71, 6-(2,6-difluoro-4-(2-methyl-2H-indazol-4-yl)benzyl)-5-oxo-N-(2-oxaspiro[3.3]heptan-6-yl)-5,6-dihydropyrido[3,4-b]pyrazine-8-carboxamide] | 5.51 | 57 | < 5.00 | < 5
Cn1cc2c(-c3cc(F)c(Cn4cc(C(=O)N[C@H]5CCCCC[C@@H]5O)c5occc5c4=O)c(F)c3)cccc2n1 [Compound D22, 5-(2,6-difluoro-4-(2-methyl-2H-indazol-4-yl)benzyl)-N-((1S,2S)-2-hydroxycycloheptyl)-4-oxo-4,5-dihydrofuro[3,2-c]pyridine-7-carboxamide] | 6.02 | 81 | < 5.00 | 9
Cn1cc2c(-c3cc(F)c(Cn4cc(C(=O)N[C@H]5CCC[C@@H]5O)c5sccc5c4=O)c(F)c3)cccc2n1 [Compound D32, 5-(2,6-difluoro-4-(2-methyl-2H-indazol-4-yl)benzyl)-N-((1S,2S)-2-hydroxycyclopentyl)-4-oxo-4,5-dihydrothieno[3,2-c]pyridine-7-carboxamide] | 5.11 | 40 | < 5.00 | < 5
Cn1cc(-c2ccc(Cn3cc(C(=O)NCC(O)C(F)(F)F)c4nccnc4c3=O)c(F)c2)cn1 (centres unmarked) [Compound A81, 6-(2-fluoro-4-(1-methyl-1H-pyrazol-4-yl)benzyl)-5-oxo-N-(3,3,3-trifluoro-2-hydroxypropyl)-5,6-dihydropyrido[3,4-b]pyrazine-8-carboxamide] | ≤ 5.00 | 33 | < 5.00 | < 5
